Laboratory results as given in the supplement of paper PMC10307832.

Tests used:
Test in all cases: relative viability (nuclei count vs DMSO), 5 days (fraction); higher = more cells survive
[1] = compound: CC1(C)CCC(CN2CCN(c3ccc(C(=O)NS(=O)(=O)c4ccc(NCC5CCOCC5)c([N+](=O)[O-])c4)c(Oc4cnc5[nH]ccc5c4)c3)CC2)=C(c2ccc(Cl)cc2)C1 [Venetoclax] + Nc1ncn([C@H]2C[C@H](O)[C@@H](CO)O2)c(=O)n1 [Decitabine] (partner 2 µM)
Outline: (§1)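 The day after seeding in 1536-well plates, lung cancer cell lines were treated by pin tool with a single drug, or with a fixed anchor-drug dose together with five library-drug doses (not always all listed) in √10 steps. After 5 days, a combined fix-and-stain solution (final 0.05% Triton X-100, 1% formaldehyde, 1 ug/ml Hoechst) was added. Nuclei counted on 4× images gave relative viability as treated counts over vehicle counts, reported as the median of duplicate plates.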

[2] = compound: CC1(C)CCC(CN2CCN(c3ccc(C(=O)NS(=O)(=O)c4ccc(NCC5CCOCC5)c([N+](=O)[O-])c4)c(Oc4cnc5[nH]ccc5c4)c3)CC2)=C(c2ccc(Cl)cc2)C1 [Venetoclax] + N=C(N)NC(=N)NCCc1ccccc1 [Phenformin] (partner 250 µM)
Outline: as §1

[3] = compound: CC1(C)CCC(CN2CCN(c3ccc(C(=O)NS(=O)(=O)c4ccc(NCC5CCOCC5)c([N+](=O)[O-])c4)c(Oc4cnc5[nH]ccc5c4)c3)CC2)=C(c2ccc(Cl)cc2)C1 [Venetoclax] + CC(=O)Nc1cccc(-n2c(=O)n(C3CC3)c(=O)c3c(Nc4ccc(I)cc4F)n(C)c(=O)c(C)c32)c1 [Trametinib] (partner 0.02 µM)
Outline: as §1

[4] = compound: Cn1cnc2c(F)c(Nc3ccc(Br)cc3Cl)c(C(=O)NOCCO)cc21 [Selumetinib] + CC1(C)CCC(c2ccc(Cl)cc2)=C(CN2CCN(c3ccc(C(=O)NS(=O)(=O)c4ccc(N[C@H](CCN5CCOCC5)CSc5ccccc5)c(S(=O)(=O)C(F)(F)F)c4)cc3)CC2)C1 [Navitoclax] (partner 0.5 µM)
Outline: as §1

Cell Line	relative viability ([1]; first compound 0.01 µM)	relative viability ([1]; first compound 0.03162 µM)	relative viability ([1]; first compound 0.1 µM)	relative viability ([1]; first compound 0.3162 µM)	relative viability ([1]; first compound 1 µM)	relative viability ([2]; first compound 0.01 µM)	relative viability ([2]; first compound 0.03162 µM)	relative viability ([2]; first compound 0.1 µM)	relative viability ([2]; first compound 0.3162 µM)	relative viability ([2]; first compound 1 µM)	relative viability ([3]; first compound 0.01 µM)	relative viability ([3]; first compound 0.03162 µM)	relative viability ([3]; first compound 0.1 µM)	relative viability ([3]; first compound 0.3162 µM)	relative viability ([3]; first compound 1 µM)	relative viability ([4]; first compound 0.02 µM)	relative viability ([4]; first compound 0.06325 µM)	relative viability ([4]; first compound 0.2 µM)	relative viability ([4]; first compound 0.6325 µM)
NCI-H522	0.657	0.694	0.617	0.605	0.677	0.647	0.735	0.561	0.613	0.637	0.716	0.747	0.674	0.728	0.655	–	–	–	–
HCC-366	0.354	0.368	0.327	0.366	0.382	0.553	0.613	0.578	0.574	0.545	0.358	0.411	0.353	0.383	0.407	1.11	0.954	0.917	0.757
A-427	0.54	0.546	0.55	0.54	0.559	0.292	0.322	0.31	0.348	0.259	0.624	0.741	0.735	0.71	0.713	1.02	0.868	0.76	0.68
NCI-H2347	0.616	0.59	0.651	0.662	0.738	0.316	0.449	0.433	0.424	0.33	0.327	0.288	0.254	0.298	0.267	0.752	0.403	0.271	0.228
NCI-H1792	0.522	0.506	0.468	0.502	0.463	0.263	0.258	–	0.254	0.246	0.456	0.405	0.485	0.498	0.439	0.741	0.641	0.522	0.533
LCLC-97TM1	0.242	0.236	0.238	0.204	0.222	0.463	0.494	0.461	0.449	0.385	0.217	0.18	0.148	0.167	0.185	0.497	0.606	0.368	0.309
RERF-LC-KJ	0.69	0.73	0.69	0.666	0.611	0.382	0.414	0.418	0.458	0.442	0.705	0.851	0.873	0.886	0.795	0.726	0.819	0.939	0.758
NCI-H1993	0.505	0.673	0.541	0.621	0.552	0.603	0.494	0.473	0.48	0.528	0.509	0.518	0.506	0.591	0.535	0.801	0.79	0.749	0.648
NCI-H1734	0.464	0.515	0.504	0.474	0.493	0.396	0.446	0.326	0.411	0.358	0.588	0.739	0.635	0.781	0.614	0.862	0.818	0.87	0.679
HCC-44	0.938	0.919	0.87	0.892	0.949	0.362	0.153	0.165	0.161	0.182	1.03	1.11	1.04	1.04	0.999	0.986	0.847	0.794	0.836
SK-MES-1	0.305	0.428	0.367	0.404	0.391	0.616	0.685	0.69	0.601	0.511	0.615	0.636	0.536	0.526	0.554	1.41	1.32	1.26	1.06
EPLC-272H	0.391	0.378	0.328	0.371	0.445	0.353	0.312	0.286	0.321	0.295	0.287	0.284	0.238	0.259	0.263	0.791	0.942	0.76	0.843
NCI-H838	0.53	0.485	0.445	0.449	0.477	0.63	0.591	0.448	0.636	0.507	0.559	0.522	0.524	0.491	0.488	1.01	0.965	0.963	0.88
SK-LU-1	0.568	0.738	0.639	0.609	0.549	0.537	0.613	0.526	0.531	0.505	0.585	0.512	0.522	0.507	0.587	0.795	0.791	1.24	0.268
